Patent US20210378591A1, “PROCESS FOR VISUAL DETERMINATION OF TISSUE BIOLOGY” (UNIVERSITY COLLEGE DUBLIN, NATIONAL UNIVERSITY OF IRELAND, …, priority 2018, published 2021)

Legend:
[1] = cited from earlier work
[2] = cited from earlier work; remark: listed apart in the source
[3] = Dynamic visual analysis (DVA) of ICG NIR fluorescence intensity, rectal lesion versus healthy background tissue; settings: for initial uptake of ICG relative to background tissue: 0.25 mg per kg intravenously, initial phase; for washout of contrast agent: at 25 to 30 minutes

- washout of contrast agent ([3]; benign lesions): most of the ICG tends to washout
- initial uptake of ICG relative to background tissue ([3]; cancerous tissue): a definite lag in the initial uptake
- washout of contrast agent ([3]; cancerous tissue): retains it for longer
Structure (SMILES): CC1(C)C(/C=C/C=C/C=C/C=C2\N(CCCCS(=O)(=O)O)c3ccc4ccccc4c3C2(C)C)=[N+](CCCCS(=O)(=O)[O-])c2ccc3ccccc3c21 [ICG, indocyanine green]
- plasma protein binding ([1]; following intravenous injection): rapidly bound to plasma proteins with minimal leakage into the interstitium
- time of excretion by the liver in bile after injection ([1]; intravenous injection): about 8 min
- water solubility [2]: water-soluble but relatively hydrophobic
- initial uptake of ICG relative to background tissue ([3]; benign lesions): either synchronous with the background tissue or was ahead of the background tissue
